# Test results as given in ChEMBL document CHEMBL3585323, “Effect of intercalator substituent and nucleotide sequence on the stability of DNA- and RNA-naphthalimide complexes” (Bioorg Med Chem, 2015).
# Activity calls are given as the source filed them. The rule behind the calls is not given here.
# Columns and labels:
# Nucleic Acid [1] = test: Induction of DNA intercalation using 5'-r(GUCCGCGGAC)2-3' at 250 uM by UV-vis spectrophotometric analysis; type: nucleic-acid assay
# Nucleic Acid [2] = test: Induction of DNA intercalation using 5'-d(GCGCGCGC)2-3' at 250 uM by UV-vis spectrophotometric analysis; type: nucleic-acid assay
# Nucleic Acid [3] = test: Induction of DNA intercalation using 5'-d(ATATATATATAT)2-3' at 250 uM by UV-vis spectrophotometric analysis; type: nucleic-acid assay
# Nucleic Acid [4] = test: Induction of DNA intercalation using 5'-d(GTCCGCGGAC)2-3' at 250 uM by UV-vis spectrophotometric analysis; type: nucleic-acid assay
# [5] = Binding affinity to 5'-r(GCGCGCGC)2-3' DNA assessed as change in melting temperature at 1:1 DNA to compound molar ratio by spectrophotometric analysis
# Nucleic Acid [6] = test: Induction of DNA intercalation using 5'-d(ATATATGATATA)-3'/5'-(TATATCATATAT)-3' at 250 uM by UV-vis spectrophotometric analysis; type: nucleic-acid assay
# [7] = Binding affinity to 5'-d(GTCCGTCGGAC)-3'/5'-(GTCCGACGGAC)-3' DNA assessed as change in melting temperature at 1:1 DNA to compound molar ratio by spectrophotometric analysis
# Nucleic Acid [8] = test: Induction of DNA intercalation using 5'-r(GCGCGCGC)2-3' at 250 uM by UV-vis spectrophotometric analysis; type: nucleic-acid assay
# [9] = Binding affinity to 5'-d(GTAATATTAC)2-3' DNA assessed as change in melting temperature at 1:1 DNA to compound molar ratio by spectrophotometric analysis
# [10] = Binding affinity to 5'-d(ATATATGATATA)-3'/5'-(TATATCATATAT)-3' DNA assessed as change in melting temperature at 1:1 DNA to compound molar ratio by spectrophotometric analysis
# Nucleic Acid [11] = test: Induction of DNA intercalation using 5'-d(GTAATATTAC)2-3' at 250 uM by UV-vis spectrophotometric analysis; type: nucleic-acid assay
# Nucleic Acid [12] = test: Induction of DNA intercalation using 5'-d(ATATAGTATATA)-3'/5'-(TATATACTATAT)-3' at 250 uM by UV-vis spectrophotometric analysis; type: nucleic-acid assay
# [13] = Binding affinity to 5'-d(ATATATATATAT)2-3' DNA assessed as change in melting temperature at 1:1 DNA to compound molar ratio by spectrophotometric analysis
# [14] = Binding affinity to 5'-d(GTCCGCGGAC)2-3' DNA assessed as change in melting temperature at 1:1 DNA to compound molar ratio by spectrophotometric analysis
# [15] = Binding affinity to 5'-r(GUCCGCGGAC)2-3' DNA assessed as change in melting temperature at 1:1 DNA to compound molar ratio by spectrophotometric analysis
# [16] = Binding affinity to 5'-d(ATATAGTATATA)-3'/5'-(TATATACTATAT)-3' DNA assessed as change in melting temperature at 1:1 DNA to compound molar ratio by spectrophotometric analysis
# [17] = Binding affinity to 5'-d(GCGCGCGC)2-3' DNA assessed as change in melting temperature at 1:1 DNA to compound molar ratio by spectrophotometric analysis
# Nucleic Acid [18] = test: Induction of DNA intercalation using 5'-d(GTCCGTCGGAC)-3'/5'-(GTCCGACGGAC)-3' at 250 uM by UV-vis spectrophotometric analysis; type: nucleic-acid assay
# Nucleic Acid [19] = test: Induction of DNA intercalation using 5'-d(CGATCG)2-3' at 1:0.5 DNA to compound molar ratio by NMR analysis; type: nucleic-acid assay
# Nucleic Acid [20] = test: Induction of DNA intercalation using 5'-d(GTCCGCGGAC)2-3' at 1:0, 1:0.5, 1:1, 1:1.5, 1:2 DNA to compound molar ratio by CD spectroscopic analysis; type: nucleic-acid assay
# Nucleic Acid [21] = test: Induction of DNA intercalation using 5'-d(CGATCG)2-3' by NMR analysis; type: nucleic-acid assay
Compound,Activity (Nucleic Acid [1]),Activity (Nucleic Acid [2]),Activity (Nucleic Acid [3]),Activity (Nucleic Acid [4]),ΔTm [5] [°C],Activity (Nucleic Acid [6]),ΔTm [7] [°C],Activity (Nucleic Acid [8]),ΔTm [9] [°C],ΔTm [10] [°C],Activity (Nucleic Acid [11]),Activity (Nucleic Acid [12]),ΔTm [13] [°C],ΔTm [14] [°C],ΔTm [15] [°C],ΔTm [16] [°C],ΔTm [17] [°C],Activity (Nucleic Acid [18]),also measured
CN(C)CCN1C(=O)c2cccc3cc(-c4ccccc4)cc(c23)C1=O,Active,Active,Active,Active,0,Active,0,Active,0,1.3,Active,Active,0,0,0,5.8,0,Active,
CN(C)CCN1C(=O)c2cccc3cc(N)cc(c23)C1=O,Active,Active,Active,Active,1.1,Active,0,Active,11.6,14.6,Active,Active,0,5.1,1,10.1,16.9,Active,Activity (Nucleic Acid [19]): Active
CN(C)CCN1C(=O)c2cccc3cc([N+](=O)[O-])cc(c23)C1=O,Active,Active,Active,Active,1.8,Active,5,Active,12.6,17.2,Active,Active,0,13.3,2.2,11.7,14.3,Active,Activity (Nucleic Acid [20]): Active; Activity (Nucleic Acid [21]): Active
CC(=O)Nc1cc2c3c(cccc3c1)C(=O)N(CCN(C)C)C2=O,Active,Active,Active,Active,0,Active,0,Active,8.6,8.8,Active,Active,0,5.6,0,4.7,4.6,Active,
CC(C)Nc1cc2c3c(cccc3c1)C(=O)N(CCN(C)C)C2=O,Active,Active,Active,Active,0,Active,2.1,Active,7.3,16.4,Active,Active,0,0,1.1,0,7.9,Active,
CN(C)CCN1C(=O)c2cccc3cccc(c23)C1=O,Active,Active,Active,Active,0,Active,0,Active,8.1,19.4,Active,Active,0,5.6,0,11.6,8.7,Active,

# Continued, in another order:
Activity (Nucleic Acid [1]),Activity (Nucleic Acid [2]),Activity (Nucleic Acid [3]),Activity (Nucleic Acid [4]),ΔTm [5] [°C],Activity (Nucleic Acid [6]),ΔTm [7] [°C],Activity (Nucleic Acid [8]),ΔTm [9] [°C],ΔTm [10] [°C],Activity (Nucleic Acid [11]),Activity (Nucleic Acid [12]),ΔTm [13] [°C],ΔTm [14] [°C],ΔTm [15] [°C],ΔTm [16] [°C],ΔTm [17] [°C],Activity (Nucleic Acid [18]),Compound,also measured
Active,Active,Active,Active,0,Active,0,Active,0,5.1,Active,Active,0,2.7,0,0,3.2,Active,Cc1cc2c3c(cccc3c1)C(=O)N(CCN(C)C)C2=O,
Active,Active,Active,Active,0,Active,0,Active,4.4,8.4,Active,Active,0,0,0,1.7,2.5,Active,CN(C)CCN1C(=O)c2cccc3cc(I)cc(c23)C1=O,
Active,Active,Active,Active,1.6,Active,0,Active,6.3,13.9,Active,Active,0,6,2,10.8,9.5,Active,CN(C)CCN1C(=O)c2cccc3cc(Br)cc(c23)C1=O,
Active,Active,Active,Active,0,Active,0,Active,4.5,7,Active,Active,0,1.1,0,0,6.3,Active,CN(C)CCN1C(=O)c2cccc3cc(Cl)cc(c23)C1=O,
Active,Active,Active,Active,0,Active,2.2,Active,4.4,14.7,Active,Active,0,1.6,0,5.7,1.6,Active,CN(C)CCN1C(=O)c2cccc3cc(O)cc(c23)C1=O,
